Converted amounts (≈) assume the structure as drawn. “And” between values parts separate entries of the source, which are not always exact repeats. Identical values can stand only once.
Columns and labels:
physchem = format: physicochemical; conditions: for logD: pH 7.4; for solubility kinetic: pH 7.4, aqueous buffer, kinetic from dmso stock
Experimental: (§1) Additionally, an initial absorption, distribution, metabolism, and excretion (ADME) profile of the compound series was performed (Table 4).

NRP-1/VEGF-A interaction [1] = molecular target: T1, NRP-1/VEGF-A interaction (Homo sapiens, UniProt O14786); test: ELISA-based NRP1-VEGF-A165 protein binding assay (concentration-response, IC50); conditions: 20 nM biotinylated hVEGF-A165 with 4 μg/ml heparin, n=3, read-out: Calculated IC50 values of inhibiting the NRP-1/VEGF-A interaction
T1 construct: coated with the extracellular domain of human NRP-1 (containing the a1a2 and the b1b2 regions); purchased Fisher, Hampton, NH 50-101-8343
T1 sequence (O14786 22-856 limits assumed): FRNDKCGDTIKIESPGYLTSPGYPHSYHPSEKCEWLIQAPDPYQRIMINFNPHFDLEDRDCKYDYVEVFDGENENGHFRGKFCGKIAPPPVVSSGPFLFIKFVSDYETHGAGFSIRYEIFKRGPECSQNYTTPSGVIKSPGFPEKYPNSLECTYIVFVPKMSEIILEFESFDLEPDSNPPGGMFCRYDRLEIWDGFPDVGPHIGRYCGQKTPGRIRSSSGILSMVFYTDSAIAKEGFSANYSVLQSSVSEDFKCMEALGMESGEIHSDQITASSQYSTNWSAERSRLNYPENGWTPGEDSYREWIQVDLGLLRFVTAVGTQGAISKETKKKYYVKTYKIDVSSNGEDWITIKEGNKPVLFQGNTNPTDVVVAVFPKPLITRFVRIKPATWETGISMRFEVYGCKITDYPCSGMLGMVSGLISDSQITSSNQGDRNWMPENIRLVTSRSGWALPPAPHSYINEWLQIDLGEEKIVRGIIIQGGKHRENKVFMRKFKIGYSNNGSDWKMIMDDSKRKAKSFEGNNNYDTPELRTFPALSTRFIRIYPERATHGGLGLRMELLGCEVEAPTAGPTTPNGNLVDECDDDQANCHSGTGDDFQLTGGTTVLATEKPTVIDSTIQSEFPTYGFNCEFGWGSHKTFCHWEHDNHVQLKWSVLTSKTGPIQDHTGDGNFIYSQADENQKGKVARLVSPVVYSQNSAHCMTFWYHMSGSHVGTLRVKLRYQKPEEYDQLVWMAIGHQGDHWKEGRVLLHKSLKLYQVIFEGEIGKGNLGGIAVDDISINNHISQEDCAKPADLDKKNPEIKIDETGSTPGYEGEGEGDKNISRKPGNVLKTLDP
Experimental: Plates (96-well, Nunc Maxisorp; Thermo Fisher Scientific, Waltham, MA, USA) were coated with human Neuropilin-1-Fc (200 ng per well, Cat #50-101-8343, Fisher, Hampton, NH) and incubated at 4° C. overnight. The following day, the plates were washed and blocked with 3% BSA in PBS to minimize non-specific adsorptive binding to the plates. EG00229 (Cat #6986, Tocris) or the indicated compounds were added at different concentrations and incubated for 30 min at room temperature prior to adding biotinylated human VEGF-A165 (Cat #BT10543-025, R&D systems) at 20 nM with 4 μg/ml of heparin. As a negative control, some wells received PBS containing 3% BSA and as a positive control only hVEGF-A165 was used. The plates were incubated at room temperature with shaking for 2 h. Next, the plates were washed with PBS 0.05% Tween to eliminate unbound protein. Bound biotinylated VEGF was detected by streptavidin-HRP (Cat #016-030-084, Jackson immunoResearch). Tetramethylbenzidine (Cat #DY999, R&D Systems, St. Louis, MO) was used as the colorimetric substrate. The optical density of each well was determined immediately, using a microplate reader (Multiskan Ascent; Thermo Fisher Scientific) set to 450 nm with a correction wavelength of 570 nm. Percentage of inhibition was calculated by the following formula: […]
where S is the optical density measured in the wells with the compounds, N is the optical density measured in the negative control wells and P is the optical density in the positive control wells. The IC50 was calculated using a non-linear regression function with GraphPad Prism Version 9. The data are presented as log (inhibitor) [M] versus normalized response-variable slope. Data are the means±S.E.M. of three independent experiments.
Finally, the ability of the compounds to interfere with the NRP-1NEGF-A interaction was evaluated using an enzyme linked immunosorbent assay (ELISA), as previously described (Moutal, et al., Pain 2021, 12(1), 243-252). Plates were coated with the extracellular domain of human NRP-1 (containing the a1a2 and the b1b2 regions) and the compounds were added to disrupt the NRP-1NEGF-A interaction. The biotinylated human VEGF-A used in the experiments described above (Moutal, et al., Pain 2021, 12(1), 243-252) was discontinued. For the instant studies, biotinylated hVEGF-A (Cat #BT10543-025, R&D systems) was used. Because of that, the known NRP-1 antagonist EG00229 and compound 4 from the above series of inhibitors (Moutal, et al., Pain 2021, 12(1), 243-252) were also tested in the instant studies.

in vitro = in vitro ADME; conditions: microsomes
Experimental: as §1

HepG2 cells = test: Cell proliferation and cytotoxicity in HepG2 cells (CellTiterGlo); format: cell-based; conditions: Homo sapiens, 48 h
Experimental: as §1

NRP-1/VEGF-A interaction [2] = molecular target: T1, NRP-1/VEGF-A interaction; test: ELISA-based NRP1-VEGF-A165 protein binding assay (single concentration); conditions: compounds 12.5 μM (Spike S1 100 nM), biotinylated VEGF-A165 10 nM; ± standard error of the mean, n = 11
VSV-eGFP-SARS-CoV-2 = format: cell-based
pY1175 VEGFR2 = test: In cell Western for detecting inhibition of VEGFR2 activation by VEGF-A165; format: cell-based, mouse; conditions: CAD cells, compounds 12.5 μM or Spike 100 nM, 1 nM VEGF-A165, 1 hour

| SMILES | logD (physchem) | solubility kinetic (physchem) | IC50 (NRP-1/VEGF-A interaction [1]) | half-life (in vitro; human) | half-life (in vitro; mouse) | half-life (in vitro; rat) | IC50 (HepG2 cells) | Rel % inhibition (NRP-1/VEGF-A interaction [2]) | inhibition of VSV-eGFP-SARS-CoV-2 antiviral activity (VSV-eGFP-SARS-CoV-2) | inhibition of VEGF-A stimulated increased phosphorylation of VEGFR2 (pY1175) (pY1175 VEGFR2) |
| --- | --- | --- | --- | --- | --- | --- | --- | --- | --- | --- |
| COc1cccc(-c2nc(Nc3c[nH]c(C(=O)O)c3)cc(=O)[nH]2)c1 [1g′, 4-[[2-(3-methoxyphenyl)-6-oxo-1H-pyrimidin-4-yl]amino]-1H-pyrrole-2-carboxylic acid] | -0.62 | > 200 µM | 28.2 µM | > 120 min | > 120 min | > 120 min | > 30 µM | – | – | – |
| COc1cccc(-c2cc(=O)[nH]c(Nc3c[nH]c(C(=O)O)c3)n2)c1 [1g′-iso, 4-[[4-(3-methoxyphenyl)-6-oxo-1H-pyrimidin-2-yl]amino]-1H-pyrrole-2-carboxylic acid] | -0.38 | > 200 µM | 32 µM | > 120 min | > 120 min | > 120 min | > 30 µM | – | – | – |
| COc1cccc(-c2cc(=O)[nH]c(Nc3ccccc3)n2)c1 [Compound 1] | – | – | – | – | – | – | – | 56 ± 7% | – | – |
| COc1cccc(-c2cc(=O)[nH]c(Nc3ccnc(N)c3)n2)c1 [Compound 1a, 2-[(2-amino-4-pyridyl)amino]-4-(3-methoxyphenyl)-1H-pyrimidin-6-one] | 1.64 | 184 µM (≈ 56.9 µg/mL) | 214 µM | > 120 min | 29.3 min | 3.8 min | > 30 µM | – | – | – |
| COc1cccc(-c2nc(Nc3ccccc3)cc(=O)[nH]2)c1 [Compound 1b, 4-anilino-2-(3-methoxyphenyl)-1H-pyrimidin-6-one] | 3.78 | 3.5 µM (≈ 1.03 µg/mL) | 112 µM | 14.8 min | 9.4 min | 8.3 min | > 30 µM | – | – | – |
| COc1cccc(-c2cc(Nc3ccccc3)[nH]c(=O)n2)c1 [Compound 1b-iso, 6-anilino-4-(3-methoxyphenyl)-1H-pyrimidin-2-one] | 2.78 | 4.7 µM (≈ 1.38 µg/mL) | 105 µM | 102 min | 22 min | 4.4 min | > 30 µM | – | – | – |
| COc1cccc(-c2cc(=O)[nH]c(Nc3cccc(O)c3)n2)c1 [Compound 1c, 2-(3-hydroxyanilino)-4-(3-methoxyphenyl)-1H-pyrimidin-6-one] | 2.49 | 14.2 µM (≈ 4.39 µg/mL) | 23.1 µM | > 120 min | 71.7 min | 4.4 min | > 30 µM | – | – | – |
| COc1cc(-c2cc(=O)[nH]c(Nc3ccc(Cl)c(O)c3)n2)ccn1 [Compound 1d, 2-(4-chloro-3-hydroxy-anilino)-4-(2-methoxy-4-pyridyl)-1H-pyrimidin-6-one] | 3.15 | 19.4 µM (≈ 6.69 µg/mL) | 134 µM | 28.4 min | 59.7 min | 14.1 min | > 30 µM | – | – | – |
| COc1cc(-c2cc(=O)[nH]c(Nc3ccccc3)n2)ccn1 [Compound 1s, 2-anilino-4-(2-methoxy-4-pyridyl)-1H-pyrimidin-6-one] | 3.15 | 11.5 µM (≈ 3.38 µg/mL) | 1030 µM | 16.6 min | 13.6 min | 9.4 min | > 30 µM | – | – | – |
| COc1cccc(-c2cc(=O)[nH]c(Nc3cc[nH]n3)n2)c1 [Compound 1t, 4-(3-methoxyphenyl)-2-(1H-pyrazol-3-ylamino)-1H-pyrimidin-6-one] | 2.67 | 48.7 µM (≈ 13.8 µg/mL) | 128 µM | 64.5 min | 4.5 min | 12.7 min | > 30 µM | – | – | – |
| COc1cccc(-c2cc(=O)[nH]c(Nc3ccccc3)n2)n1 [Compound 1u, 2-anilino-4-(6-methoxy-2-pyridyl)-1H-pyrimidin-6-one] | 3.51 | 10.4 µM (≈ 3.06 µg/mL) | 369 µM | 18.9 min | 9.6 min | 3.9 min | > 30 µM | – | – | – |
| COc1ccc(C)c(-c2cc(=O)[nH]c(Nc3ccccc3)n2)c1 [Compound 1v, 2-anilino-4-(5-methoxy-2-methyl-phenyl)-1H-pyrimidin-6-one] | 2.91 | 8 µM (≈ 2.46 µg/mL) | – | > 120 min | > 120 min | 4.7 min | > 30 µM | – | – | – |
| CC(C)Cc1cc(C(=O)NCC2CCOC2)nc(=O)[nH]1 (stereo not shown) [Compound 2] | – | – | – | – | – | – | – | 59 ± 11% | – | – |
| CC(C)Cc1cc(C(=O)NCCO)nc(=O)[nH]1 [Compound 2a, N-(2-hydroxyethyl)-6-isobutyl-2-oxo-1H-pyrimidine-4-carboxamide] | 0.02 | > 200 µM | ≤ 32 µM and 1.8 µM | > 120 min | > 120 min | > 120 min | > 30 µM | – | – | – |
| COc1ccccc1Nc1nc(-c2cnc(N3CCCC3)nc2C)cc(=O)[nH]1 [Compound 5] | – | – | – | – | – | – | – | 42 ± 10% | – | – |
| COc1ccccc1Nc1nncc(=O)[nH]1 [Compound 7] | – | – | – | – | – | – | – | 18 ± 19% | – | – |
| O=c1cnnc(Nc2ccccc2O)[nH]1 [Compound 8] | – | – | – | – | – | – | – | 24 ± 16% | – | – |
| Cc1cc(CN(C)Cc2cc(=O)[nH]c(=O)[nH]2)no1 [Compound 9] | – | – | – | – | – | – | – | 43 ± 8% | – | – |
| O=c1cc(Nc2cccc(O)c2)[nH]c(=O)[nH]1 [Compound 9c, 6-(3-hydroxyanilino)-1H-pyrimidine-2,4-dione] | 0.38 | > 200 µM | 469 µM | > 120 min | > 120 min | > 120 min | > 30 µM | – | – | – |
| O=C(O)Cc1cnc(-c2cccnc2)[nH]c1=O [Compound 11] | – | – | – | – | – | – | – | 43 ± 16% | – | – |
| O=C(/C=C/c1ccc(O)c(O)c1)O[C@@H](C(=O)O)[C@@H](O)C(=O)O [Compound 17] | – | – | – | – | – | – | – | 12 ± 16% | ~15% | – |
| NC(N)=NCCC[C@H](NC(=O)c1sccc1NS(=O)(=O)c1cccc2nsnc12)C(=O)O [EG00229, reference compound] | – | – | 1370 µM | – | – | – | – | 33 ± 10% | ineffective | blocked |
